The source of these data is PubChem BioAssay (NCI).

Test systems include SK-OV-3 ovarian; COLO 205 colon; MOLT-4 leukemia; HOP-92 NSCLC; HCT-116 colon; EKVX NSCLC; SNB-75 CNS; OVCAR-3 ovarian; SK-MEL-28 melanoma; SK-MEL-5 melanoma.
Common to all, as to assay: NCI anticancer screen, dose series, 48 h

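48-hour exposure; five concentrations; linearly interpolated endpoints. The concentration for 50% growth inhibition is given as GI50. Definition used: TGI = concentration required for complete inhibition of growth.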 Bounds are passed on as bounds.

As for `C/C(=N\Nc1ccccc1)C(CN(C)C)C(c1ccccc1)c1c(O)c2ccccc2oc1=O` (stereo unspecified), the TGI in the test on SK-OV-3 ovarian is over 100 µM; with COLO 205 colon, over 100 µM; in the test with MOLT-4 leukemia, over 100 µM; in the test with HOP-92 NSCLC, 97 µM; with HCT-116 colon, over 100 µM; in the test with EKVX NSCLC, over 100 µM. Further, the TGI with SNB-75 CNS, in the test with OVCAR-3 ovarian, with SK-MEL-28 melanoma and with SK-MEL-5 melanoma was over 100 µM throughout.

Consider `Cc1ccc(/C=C2\CN(C)CC3C2=NC(=S)NC3c2ccc(C)cc2)cc1` (stereo unspecified), for which the TGI with SK-OV-3 ovarian was over 100 µM; with COLO 205 colon, over 71.7 µM; with MOLT-4 leukemia it was 56 µM; in the test on HOP-92 NSCLC it was over 31.1 µM; in the test on HCT-116 colon, over 100 µM; in the test on EKVX NSCLC, over 40.3 µM. Moreover, the TGI with SNB-75 CNS, in the test with OVCAR-3 ovarian, in the test on SK-MEL-28 melanoma and in the test with SK-MEL-5 melanoma was over 100 µM in each case.

Consider `CCN(CC)CCN(C)CCc1ccc(Br)cc1`, for which the TGI in the test on SK-OV-3 ovarian is over 100 µM; in the test with COLO 205 colon, 39.5 µM; in the test on MOLT-4 leukemia, over 100 µM; in the test on HOP-92 NSCLC, over 100 µM; with HCT-116 colon, over 100 µM; with EKVX NSCLC it was over 100 µM. In addition, the TGI in the test on SNB-75 CNS is over 100 µM; with OVCAR-3 ovarian, over 100 µM; with SK-MEL-28 melanoma it was over 100 µM; with SK-MEL-5 melanoma, 33.6 µM.

As to `CC1=C2NCN(C)N=C2C(C#N)(C#N)C1(C#N)C#N`, the TGI was over 100 µM with SK-OV-3 ovarian; 19.9 µM in the test on COLO 205 colon; 9.87 µM in the test with MOLT-4 leukemia; 32 µM in the test on HOP-92 NSCLC; 57.4 µM with HCT-116 colon; over 57.3 µM with EKVX NSCLC. For the same compound, the TGI with SNB-75 CNS is over 87.9 µM; with OVCAR-3 ovarian it was 66.8 µM; with SK-MEL-28 melanoma, 49.9 µM; in the test with SK-MEL-5 melanoma it was over 71.4 µM.

Turning to `O=P(O)(O)CN1CCNCCN(CP(=O)(O)O)CCNCC1`, the TGI in the test with SK-OV-3 ovarian was over 100 µM; with COLO 205 colon it was over 100 µM; with MOLT-4 leukemia it was over 100 µM; in the test with HOP-92 NSCLC, 9.76 µM; in the test on HCT-116 colon, over 100 µM; with EKVX NSCLC, over 100 µM. The TGI is over 100 µM in the test on SNB-75 CNS, over 100 µM in the test on OVCAR-3 ovarian, over 100 µM in the test on SK-MEL-28 melanoma and over 42 µM with SK-MEL-5 melanoma.

Turning to `CC(C)=CCC[C@@H](C)c1c2[nH]c3ccccc3sc-2c(C)c(=O)c1=O`, the TGI with SK-OV-3 ovarian is over 75 µM; in the test on COLO 205 colon, over 66.7 µM; in the test on MOLT-4 leukemia, over 75 µM; with HOP-92 NSCLC, over 75 µM; in the test with HCT-116 colon, 21.8 µM; with EKVX NSCLC it was over 75 µM. The TGI with SNB-75 CNS is over 43.3 µM; in the test on OVCAR-3 ovarian, over 45.1 µM; in the test with SK-MEL-28 melanoma, over 75 µM; in the test with SK-MEL-5 melanoma, 19.7 µM.

Consider `COC(=O)c1ccc(/C=C2\CCc3ccccc3C2=O)cc1`, for which the TGI in the test with SK-OV-3 ovarian, with COLO 205 colon, with MOLT-4 leukemia, in the test with HOP-92 NSCLC, in the test on HCT-116 colon and in the test on EKVX NSCLC was over 100 µM in each case. Moreover, the TGI in the test on SNB-75 CNS, in the test on OVCAR-3 ovarian, in the test with SK-MEL-28 melanoma and in the test on SK-MEL-5 melanoma was over 100 µM throughout.

As to `CC(=O)c1ccc(NC(=O)CSc2nc(C)nc3c2sc(=S)n3-c2ccccc2)cc1`, the TGI with SK-OV-3 ovarian, with COLO 205 colon, in the test on MOLT-4 leukemia, with HOP-92 NSCLC, in the test on HCT-116 colon and in the test on EKVX NSCLC was over 3.16 µM throughout. The TGI with SNB-75 CNS, with OVCAR-3 ovarian, in the test on SK-MEL-28 melanoma and with SK-MEL-5 melanoma was over 3.16 µM throughout.

For the compound `CCCNC(=O)CCC(C)[C@H]1CCC2C3C(C[C@H](OC(C)=O)[C@@]21C)[C@@]1(C)CCC2(C[C@H]1C[C@H]3OC(C)=O)OOC1(CCCCC1)OO2` (stereo partly specified), the TGI was over 100 µM with SK-OV-3 ovarian; 3.64 µM with COLO 205 colon; 5.14 µM with MOLT-4 leukemia; 3.82 µM in the test with HOP-92 NSCLC; over 61.5 µM in the test on HCT-116 colon; 3.95 µM in the test on EKVX NSCLC. For the same compound, the TGI in the test on SNB-75 CNS is 6.86 µM; in the test with OVCAR-3 ovarian it was 5.3 µM; with SK-MEL-28 melanoma, over 100 µM; with SK-MEL-5 melanoma, 5.71 µM. Moreover, in the test on HOP-92 NSCLC, the GI50 was 1420 nM.

`C/C(=N/O)c1ccc2c(c1)C(=NO)c1cc(/C(C)=N/O)ccc1-2`: the TGI came out at 36.5 µM with SK-OV-3 ovarian; 38.5 µM in the test with COLO 205 colon; 13.2 µM in the test with MOLT-4 leukemia; 47.4 µM in the test on HOP-92 NSCLC; 64.6 µM in the test with HCT-116 colon; 41.7 µM in the test with EKVX NSCLC. Besides, the TGI is 36.3 µM in the test with SNB-75 CNS, 39.3 µM in the test on OVCAR-3 ovarian, 31.7 µM in the test with SK-MEL-28 melanoma and 28.5 µM in the test with SK-MEL-5 melanoma.

Take `CC1(C)[C@@H]2CC[C@@]1(C)[C@H](O)[C@@H]2SCc1ccccc1`: the TGI in the test on SK-OV-3 ovarian was determined as 44.9 µM; in the test on COLO 205 colon, 34.1 µM; in the test on MOLT-4 leukemia it was 49.7 µM; with HOP-92 NSCLC it was 28.7 µM; in the test with HCT-116 colon it was 44.4 µM; in the test with EKVX NSCLC it was 34.2 µM. In addition, the TGI with SNB-75 CNS worked out at 49.1 µM; in the test on OVCAR-3 ovarian, 31.8 µM; in the test on SK-MEL-28 melanoma, 38.4 µM; in the test on SK-MEL-5 melanoma, 29.1 µM.

With `CCOC(=O)/C(C#N)=C/N(CC)/N=C/c1ccccc1`, the TGI with SK-OV-3 ovarian, in the test with COLO 205 colon, with MOLT-4 leukemia, in the test on HOP-92 NSCLC, with HCT-116 colon and in the test on EKVX NSCLC was over 100 µM throughout. Also, the TGI with SNB-75 CNS, in the test on OVCAR-3 ovarian, in the test on SK-MEL-28 melanoma and in the test on SK-MEL-5 melanoma was over 100 µM in each case.

Regarding `O=C1CC2(CCNCC2)C(=O)N1N1CCOCC1`, the TGI with SK-OV-3 ovarian, in the test on COLO 205 colon, with MOLT-4 leukemia, with HOP-92 NSCLC, in the test with HCT-116 colon and in the test on EKVX NSCLC was over 100 µM in each case. The TGI in the test on SNB-75 CNS, in the test with OVCAR-3 ovarian, with SK-MEL-28 melanoma and in the test on SK-MEL-5 melanoma was over 100 µM each time.

Consider `O=C1C=C(N2CCN(c3ccccn3)CC2)C(=O)c2c(O)ccc(O)c21`, for which the TGI in the test on SK-OV-3 ovarian was 51.3 µM; in the test with COLO 205 colon it was 16 µM; in the test with MOLT-4 leukemia, 42.2 µM; in the test on HOP-92 NSCLC it was over 54.1 µM; in the test on HCT-116 colon, 10.3 µM; with EKVX NSCLC, over 65.7 µM. The TGI in the test with SNB-75 CNS was 23.7 µM; in the test with OVCAR-3 ovarian, 20.3 µM; with SK-MEL-28 melanoma it was over 56.2 µM; in the test on SK-MEL-5 melanoma it was 4.5 µM.

Turning to `CC(C)(C)c1ccc(-c2nnc(-c3cc(C#N)cc(-c4nnc(-c5ccc(C(C)(C)C)cc5)o4)c3)o2)cc1`, the TGI with SK-OV-3 ovarian, in the test with COLO 205 colon, in the test on MOLT-4 leukemia, with HOP-92 NSCLC, in the test with HCT-116 colon and in the test with EKVX NSCLC was over 100 µM each time. The TGI in the test on SNB-75 CNS, in the test with OVCAR-3 ovarian, in the test with SK-MEL-28 melanoma and with SK-MEL-5 melanoma was over 100 µM in each case.

Regarding `CCOc1ccc(-c2oc(/C=N/NS(=O)(=O)c3ccc(C)cc3)c([N+](=O)[O-])c2-c2ccc(OCC)cc2)cc1`, the TGI with SK-OV-3 ovarian was 42.7 µM; with COLO 205 colon, 37.2 µM; in the test with MOLT-4 leukemia it was over 24.8 µM; in the test on HOP-92 NSCLC, 31.5 µM; in the test with HCT-116 colon, 3.92 µM; in the test on EKVX NSCLC it was 80 µM. Moreover, the TGI in the test on SNB-75 CNS came to 35.2 µM; in the test with OVCAR-3 ovarian, 43.3 µM; in the test with SK-MEL-28 melanoma it was 28.3 µM; with SK-MEL-5 melanoma, 21.2 µM.

Regarding `CC1(C)CCC2(C(=O)OC3OC(CO)C(O)C(O)C3O)CCC3(CO)C(=CCC4C5(C)CC(O)C(O)C(C)(C(=O)OC6OC(CO)C(O)C(O)C6O)C5CCC43C)C2C1` (stereo unspecified), the TGI with SK-OV-3 ovarian, with COLO 205 colon, in the test with MOLT-4 leukemia, with HOP-92 NSCLC, in the test on HCT-116 colon and in the test on EKVX NSCLC was over 100 µM each time. Besides, the TGI with SNB-75 CNS, in the test with OVCAR-3 ovarian, in the test with SK-MEL-28 melanoma and in the test with SK-MEL-5 melanoma was over 100 µM throughout.

`O=C(CSc1nc2ccc(I)cc2c(=O)n1Cc1ccccc1)NN1C(=O)CCC1=O`: the TGI in the test on SK-OV-3 ovarian is over 100 µM; in the test with COLO 205 colon, over 100 µM; with MOLT-4 leukemia it was over 100 µM; in the test on HOP-92 NSCLC, 64.7 µM; with HCT-116 colon it was over 100 µM; in the test on EKVX NSCLC, over 100 µM. Further, the TGI in the test on SNB-75 CNS was over 100 µM; in the test on OVCAR-3 ovarian, 70.6 µM; in the test with SK-MEL-28 melanoma, over 100 µM; with SK-MEL-5 melanoma, over 100 µM.

As for `O=S1(=O)CCN(c2ccccc2CC(c2c[nH]c3ccccc23)c2c[nH]c3ccccc23)CC1`, the TGI was over 79 µM in the test with SK-OV-3 ovarian; 8.23 µM in the test on COLO 205 colon; 8.87 µM in the test on MOLT-4 leukemia; 25.3 µM in the test with HOP-92 NSCLC; 16.5 µM in the test with HCT-116 colon; 55.7 µM with EKVX NSCLC. The TGI in the test on SNB-75 CNS worked out at 23.6 µM; with OVCAR-3 ovarian it was 20.9 µM; in the test on SK-MEL-28 melanoma, 28.8 µM; in the test on SK-MEL-5 melanoma it was 19.8 µM.
